Results on eight molecules are retold here after patent US5118704A, “Substituted 2-aminotetralins useful as dopaminergics” (Whitby Research, Inc., priority 1991, dated 1992).

One assay has as its target T1, dopamine D2 receptors (Bos taurus, UniProt P20288).
T1 construct: membranes derived from bovine caudate nuclei assay were employed; from tissue; host or cells: bovine caudate nuclei membranes (brains from a local slaughterhouse)
The experiment in a line: Radioligand binding to dopamine D2 receptors ([3H]-Spiperone, bovine caudate nuclei membranes). Particulars: for affinity and selectivity for dopamine D2 receptors (in words): result in words. As to the method:
(§1) To test the selectivity and specificity of the present compounds for binding to dopamine receptors, tests were conducted using the following standard procedures.
(§2) To test binding to dopamine receptors, membranes derived from bovine caudate nuclei assay were employed. Bovine brains were obtained fresh from a local slaughterhouse. The caudate nuclei were dissected out and homogenized in Buffer A (50 mM Tris; 1 mM Na2 -EDTA; 5 mM KCl; 1 mM MgCl2; 2 mM CaCl2; pH 7.4) using a Brinkman Polytron. The homogenate was centrifuged at 40,000 × g for 20 minutes and washed once. The pellett was resuspended in Buffer A, incubated at 37° C. for 15 minutes, then centrifuged. The pellet was washed once more, resuspended to a protein concentration of 5-10 mg/ml in Buffer A and frozen at -70° C. until used.
(§3) The following tritiated drugs were used as radioligands for each of the receptors tested: [^3 H]-Spiperone 21-24 Ci/mmol for D2 receptors, [^3 H]-SCH23390 75-85 Ci/mmol for D1 receptors, and [^3 H]-Para aminoclonidine 48-52 Ci/mmol for α2 -adrenergic receptors. The radio-ligands were incubated with various concentrations of competing drug and the appropriate membrane source for periods of time as follows: 75 minutes at room temperature for D2 receptors, 30 minutes at 37° C. for D1 receptors, or 30 minutes at room temperature for α2 receptors. Specific binding was defined using 1μM butaclamol (D2), 1 μM SCH23390 (D1), or 1 μM yohimbine (α2). In addition the D2 assays contained 30 nM ketaserin in order to block the binding of ^3 H-spiperone to 5HT2 receptors.
(§4) The assays were terminated by filtration using a 24-port Brandell cell harvester over filters that had been previously soaked in 0.1% polyethyleneimine, and the filters were washed three times by filtration of cold buffer. The filters were then placed in 5 ml scintillation vials to which 4 ml of Beckman Ready-Protein was then added, and each vial was counted for 2 minutes in a Beckman 3801 scintillation counter calibrated for conversion of cpm to dpm. Binding data were analyzed using the Ligand program of Munson and Rodbard (1980). The results are presented as Ki values if the data were best fitted to a one-site model, or as KH and KL values if a two-site model produced the better fit.

The target in the next assay is T2, α2-adrenergic receptors (Rattus norvegicus, UniProt P22909).
T2 construct: rat cerebral cortex membranes were employed as a source of receptors; from tissue; host or cells: cerebral cortex membranes of male Sprague Dawley rats
T2 sequence (P22909 1-465): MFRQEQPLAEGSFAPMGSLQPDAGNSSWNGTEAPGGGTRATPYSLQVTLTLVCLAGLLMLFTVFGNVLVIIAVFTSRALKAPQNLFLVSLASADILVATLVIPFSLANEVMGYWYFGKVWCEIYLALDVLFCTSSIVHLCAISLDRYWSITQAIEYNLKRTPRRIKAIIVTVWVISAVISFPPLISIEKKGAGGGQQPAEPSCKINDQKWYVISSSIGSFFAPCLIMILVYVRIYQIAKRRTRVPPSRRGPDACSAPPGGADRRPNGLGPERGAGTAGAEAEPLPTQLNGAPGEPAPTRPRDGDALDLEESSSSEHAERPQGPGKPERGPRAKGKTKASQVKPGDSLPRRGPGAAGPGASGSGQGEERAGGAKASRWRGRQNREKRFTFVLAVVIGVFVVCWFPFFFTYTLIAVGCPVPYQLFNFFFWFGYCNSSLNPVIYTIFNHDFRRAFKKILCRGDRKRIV
The experiment in a line: Radioligand binding to α2-adrenergic receptors ([3H]-Para aminoclonidine, rat cerebral cortex membranes). As to the method: as §1
To test binding of the compounds to α2 -adrenergic receptors, rat cerebral cortex membranes were employed as a source of receptors. Male Sprague Dawley rats were killed by decapitation and the brains removed. The cerebral cortices were homogenized in 50 mM Tris; 2 mM MgCl2 (pH 7.4), and centrifuged at 40,000 × g for 10 minutes. The pellet was washed once, resuspended in Tris/MgCl2 and incubated with 8 units/ml adenosine deaminase at 37° C. for 30 minutes. The homogenate was centrifuged, washed once, resuspended to a protein concentration of 5-10 mg/ml and frozen at -70° C. until use.
as §3, §4

Another assay addresses T3, dopamine D1 receptors (Bos taurus, UniProt Q95136).
T3 construct: membranes derived from bovine caudate nuclei assay were employed; from tissue; host or cells: bovine caudate nuclei membranes (brains from a local slaughterhouse)
Put plainly: Radioligand binding to dopamine D1 receptors ([3H]-SCH23390, bovine caudate nuclei membranes). How it is done: as §1, §2, §3, §4

A further assay has as its system dopamine D2. Particulars: result in words; cited from earlier work.
The test system of the next assay is dopamine receptor. Particulars: prior art, result in words; cited from earlier work.
The mark [1] stands for this setting: [3H]-Spiperone, bovine caudate membranes, 75 minutes at room temperature, 30 nM ketaserin, read-out: RECEPTOR AFFINITIES Ki, D2 (KL).
Setting [2] is: [3H]-Para aminoclonidine, rat cerebral cortex membranes, 30 minutes at room temperature, read-out: RECEPTOR AFFINITIES Ki, α2.
The mark [3] stands for this setting: [3H]-SCH23390, bovine caudate membranes, 30 minutes at 37° C., read-out: RECEPTOR AFFINITIES Ki, D1 (KL).

Read-outs that look alike come from different tables or passages of the source.

T3 sequence (Q95136 whole entry): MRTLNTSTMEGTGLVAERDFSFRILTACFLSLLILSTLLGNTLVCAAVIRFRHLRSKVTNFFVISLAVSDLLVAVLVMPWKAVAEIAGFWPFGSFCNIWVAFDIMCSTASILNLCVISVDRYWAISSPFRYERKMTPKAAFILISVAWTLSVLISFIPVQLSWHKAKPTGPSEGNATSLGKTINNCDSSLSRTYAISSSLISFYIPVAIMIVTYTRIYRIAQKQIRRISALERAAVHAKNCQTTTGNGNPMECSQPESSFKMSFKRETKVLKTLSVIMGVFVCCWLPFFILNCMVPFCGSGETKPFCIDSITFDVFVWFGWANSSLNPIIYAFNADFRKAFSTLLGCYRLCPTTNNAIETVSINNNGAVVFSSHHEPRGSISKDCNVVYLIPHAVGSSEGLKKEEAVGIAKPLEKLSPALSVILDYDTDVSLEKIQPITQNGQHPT
T1 sequence (P20288 whole entry): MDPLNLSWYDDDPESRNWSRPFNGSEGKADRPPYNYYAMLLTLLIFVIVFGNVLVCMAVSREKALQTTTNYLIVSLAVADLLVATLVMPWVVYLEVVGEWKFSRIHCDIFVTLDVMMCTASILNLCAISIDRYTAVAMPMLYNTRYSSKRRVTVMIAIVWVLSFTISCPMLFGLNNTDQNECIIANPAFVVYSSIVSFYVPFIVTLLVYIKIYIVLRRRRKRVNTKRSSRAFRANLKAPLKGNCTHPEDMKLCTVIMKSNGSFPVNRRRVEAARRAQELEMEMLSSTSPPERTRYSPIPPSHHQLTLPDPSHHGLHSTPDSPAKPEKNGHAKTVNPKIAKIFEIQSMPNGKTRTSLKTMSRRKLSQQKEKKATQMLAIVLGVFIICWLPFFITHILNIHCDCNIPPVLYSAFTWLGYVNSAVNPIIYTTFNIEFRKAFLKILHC

By Ki is commonly meant a dissociation constant, usually derived from enzyme kinetics or from competition with a known ligand. Consider `CCCN(CCc1cccs1)C1CCc2c(O)cccc2C1` (racemic) [Example N-0437, reference compound], for which the Ki on dopamine D2 receptors amounted to 110 nM; on α2-adrenergic receptors, 190 nM; at dopamine D1 receptors, 1000 nM. For the same molecule, the “dopamine D2 agonist potency (in words)” value in the assay on dopamine D2 is on record as “potent dopamine D2 agonist”.

In the case of `CCCN(CCCn1c(C)ccc1C)C1CCc2c(O)cccc2C1` (stereo not shown) [Example 2], the inhibition constant Ki at dopamine D2 receptors came out at 26 nM; at α2-adrenergic receptors, 1600 nM; on dopamine D1 receptors it was 2700 nM. The “affinity and selectivity for dopamine D2 receptors (in words)” value at dopamine D2 receptors (listed as 2,5-dimethyl-N-propyl-N-(1,2,3,4-tetrahydro-5-hydroxy-2-naphthalenyl)-1H-pyrrole) is “high affinity and selectivity for binding to D2 dopamine receptors”; on dopamine D2 receptors (listed as 6-[[3-(2,5-dimethyl-1H-pyrrol-1-yl)propyl]propylamino-5,6,7,8-tetrahydro-1-napht), “high affinity and selectivity for binding to dopamine D2 receptors”.

Regarding `CCCN(CCn1c(C)ccc1C)C1CCc2c(O)cccc2C1` (stereo not shown) [Example 4, 6-[[2-(2,5-dimethyl-1H-pyrrol-1-yl)ethyl]propylamino]-5,6,7,8-tetrahydro-1-naphthalenol], the Ki on dopamine D2 receptors (setting [1]) came out at 100 nM; at α2-adrenergic receptors (setting [2]), 1400 nM; on dopamine D1 receptors (setting [3]), 10000 nM.

On to `CCCN(CCCN1C(=O)c2ccccc2C1=O)C1CCc2c(O)cccc2C1` (stereo not shown) [Example 10, 2-[3-[propyl(1,2,3,4-tetrahydro-5-hydroxy-2-naphthalenyl)amino]propyl]-1H-isoindole-1,3(2H)-dione], for which the Ki at dopamine D2 receptors (setting [1]) amounted to 1260 nM; on α2-adrenergic receptors (setting [2]) it was 142 nM; on dopamine D1 receptors (setting [3]), 3230 nM.

Regarding `CCCN(CCCN1Cc2ccccc2C1)C1CCc2c(O)cccc2C1` (stereo not shown) [Example 11, 6-[[3-(1,3-dihydro-2H-isoindol-2-yl)propyl]propylamino]-5,6,7,8-tetrahydro-1-napththalenol], the Ki was 720 nM on dopamine D2 receptors (setting [1]), 1130 nM on α2-adrenergic receptors (setting [2]) and 3000 nM on dopamine D1 receptors (setting [3]).

Regarding `CCCN(CCN1C(=O)c2ccccc2C1=O)C1CCc2c(O)cccc2C1` (stereo not shown) [Example 13, 2-[2-[propyl(1,2,3,4-tetrahydro-5-hydroxy-2-naphthalenyl)amino]ethyl]-1H-isoindole-1,3(2H)-dione], the figures for the Ki on dopamine D2 receptors (setting [1]), at α2-adrenergic receptors (setting [2]) and on dopamine D1 receptors (setting [3]) were 1260 nM, 10000 nM and 14000 nM, respectively.

`CCCN(CCN1Cc2ccccc2C1)C1CCc2c(O)cccc2C1` (stereo not shown) [Example 14, 6[[2-(1,3-dihydro-2H-isoindol-2-yl)ethyl]propylamino]-5,6,7,8-tetrahydro-1-naphthalenol]: the Ki on dopamine D2 receptors (setting [1]) was 52 nM; on α2-adrenergic receptors (setting [2]), 2630 nM; at dopamine D1 receptors (setting [3]) it was 4860 nM.

In the case of `CN1CCc2cccc3c2[C@H]1Cc1ccc(O)c(O)c1-3` [apomorphine], the “dopaminergic activity (in words)” value in the assay with dopamine receptor was “high activity”.
